From paper PMC10145651, “Modulation of the 5-Lipoxygenase Pathway by Chalcogen-Containing Inhibitors of Leukotriene A4 Hydrolase” (International Journal of Molecular Sciences, 2023) come the findings set out here.

The target in data set [1] is T1, LTA4H (Homo sapiens, UniProt P09960).
T1 sequence (P09960 1-611): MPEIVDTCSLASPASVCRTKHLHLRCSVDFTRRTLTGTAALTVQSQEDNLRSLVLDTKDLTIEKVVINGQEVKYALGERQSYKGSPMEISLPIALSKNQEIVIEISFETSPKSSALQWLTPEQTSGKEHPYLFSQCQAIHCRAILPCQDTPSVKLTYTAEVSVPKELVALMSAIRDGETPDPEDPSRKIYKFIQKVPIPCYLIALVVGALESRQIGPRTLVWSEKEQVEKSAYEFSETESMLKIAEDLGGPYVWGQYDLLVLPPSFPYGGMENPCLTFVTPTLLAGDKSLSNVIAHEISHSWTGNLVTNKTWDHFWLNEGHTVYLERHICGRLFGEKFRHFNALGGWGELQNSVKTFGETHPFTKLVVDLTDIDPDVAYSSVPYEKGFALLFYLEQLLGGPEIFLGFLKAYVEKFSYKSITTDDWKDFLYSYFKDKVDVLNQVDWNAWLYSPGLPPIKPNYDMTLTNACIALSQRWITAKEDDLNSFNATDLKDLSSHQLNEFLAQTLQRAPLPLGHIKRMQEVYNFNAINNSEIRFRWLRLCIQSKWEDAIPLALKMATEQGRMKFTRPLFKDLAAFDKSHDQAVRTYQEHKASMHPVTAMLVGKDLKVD
As to the kind of experiment: Thermal shift assay with differential scanning fluorimetry. The class given is binding. Set-up: made in house; host or cells: Escherichia coli JM101. The note with it: for Tm of LTA4H upon the addition of inhibitor: 0 to 200 µM inhibitor, increased from 57.5 °C without inhibitor. Here is the method:
DSF, also known as the thermal shift assay, was carried out in 25 mM Tris-HCl pH 7.8 containing 50 ng/µL LTA4H, 2X SYPRO Orange (Life Technologies, Carlsbad, CA, USA), 3% DMSO or 0–300 µM of an inhibitor. The assay was performed in a white 96-well Multiplate PCR Plate (Bio-Rad, Hercules, CA, USA) covered with the iCycler iQ Optical tape (Bio-Rad, Hercules, CA, USA). The total volume per well was 25 μL, consisting of 1 μL SYPRO Orange solution. Relative fluorescence intensities (RFU) were recorded with a C1000 Touch Thermal Cycler (Bio-Rad, Hercules, CA, USA) and a CFX-96 Real-Time System. […] The melting temperature (Tm) for each condition were obtained from the first derivative of melting curves and the affinity (Kd) and stability (Kb) values were calculated based on the Tm and concentration–response curves.
On the technique in general: DSF heats the sample and reads unfolding from a dye or from intrinsic fluorescence.

Data set [2] addresses T1, LTA4H. As to the kind of experiment: Isothermal titration calorimetry with LTA4H. In kind it is binding. Set-up: made in house; host or cells: Escherichia coli JM101. The note with it: 25 mM Tris pH 7.8, 3% DMSO, 25 °C. On the procedure: ITC was performed with an iTC200 calorimeter (MicroCal Inc., Northampton, MA, USA) equipped with a […] sample cell. Measurements were performed in 25 mM Tris-HCl pH 7.8 supplemented with 3% DMSO at 25 °C. […] After the ITC system was equilibrated, the initial injection of an inhibitor was performed in 0.5–1.0 µL followed by 15 injections in 2.5 µL. The time between each injection was 1.5–3.0 min to ensure the complete equilibration of the system. Collected data were analyzed by MicroCal PEAK-ITC Analysis Software. Control experiments were performed with identical conditions using only inhibitor, protein or buffer with 3% DMSO.

The target of data set [3] is T2, recombinant soluble epoxide hydrolase (sEH) (Homo sapiens, UniProt P34913).
T2 construct: made in house
T2 sequence (P34913 1-555): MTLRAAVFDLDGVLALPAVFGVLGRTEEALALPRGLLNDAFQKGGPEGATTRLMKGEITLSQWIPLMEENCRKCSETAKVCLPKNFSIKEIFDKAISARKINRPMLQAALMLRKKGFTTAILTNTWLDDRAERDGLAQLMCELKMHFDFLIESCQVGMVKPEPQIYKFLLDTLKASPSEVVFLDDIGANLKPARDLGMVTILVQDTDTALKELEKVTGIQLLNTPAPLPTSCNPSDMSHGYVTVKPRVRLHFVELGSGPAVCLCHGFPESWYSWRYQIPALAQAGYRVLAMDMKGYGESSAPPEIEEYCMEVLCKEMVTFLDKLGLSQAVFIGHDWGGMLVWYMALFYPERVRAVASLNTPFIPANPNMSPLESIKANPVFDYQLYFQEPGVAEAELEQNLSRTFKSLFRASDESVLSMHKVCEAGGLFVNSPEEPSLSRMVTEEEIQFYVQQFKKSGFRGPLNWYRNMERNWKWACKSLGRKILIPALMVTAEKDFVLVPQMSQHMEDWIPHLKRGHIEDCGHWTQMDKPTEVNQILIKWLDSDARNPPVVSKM
As to the kind of experiment: Inhibition assay with soluble epoxide hydrolase (PHOME). The settings on record: for effect on the activity of recombinant soluble epoxide hydrolase (sEH): 50 μM PHOME. The class given is biochemical. Here is the method: The human recombinant soluble epoxide hydrolase (sEH) was expressed and purified as described before.
Pre-incubation with 0.5 µg/mL of sEH and test compounds or 0.1% (v/v) vehicle was performed in 25 mM Tris-HCl buffer (pH 7.0) containing 0.1 mg/mL bovine serum albumin at room temperature for 10 min. Reaction was initiated with 50 μM PHOME, a non-fluorescent compound that is enzymatically converted into fluorescent 6-methoxy-naphtaldehyde, at room temperature for 60 min. Reactions were stopped with 200 mM ZnSO4 and fluorescence signals were recorded at 330 nm/465 nm (ex/em). If required, a possible fluorescence of test compounds was subtracted from the read-out.

The mark [4] stands for this setting: from Tm concentration–response curves, read-out: Kd by differential scanning fluorimetry.
[5] abbreviates: mean ± SEM, n = 4, read-out: dissociation constant (Kd) by ITC.
The mark [6] stands for this setting: read-out: dissociation constant (Kd) by ITC.

“Also recorded” adds a separate entry of the source.

Turning to `Nc1nc(-c2ccc(Cc3ccccc3)cc2)cs1` [ARM1, 4-(4-benzylphenyl) thiazol-2-amine, reference compound], the “Tm of LTA4H upon the addition of inhibitor” value (shortened to “Tm … of inhibitor”) at LTA4H [1] was 61.2 °C. In addition, the Kd (as a rule, the equilibrium constant for the complex coming apart) turned out to be 240 ± 10 nM at LTA4H [1] (setting [4]), 248 ± 53.2 nM at LTA4H [2] (setting [5]) and 250 nM at LTA4H [2] (setting [6]). Moreover, the “effect on the activity of recombinant soluble epoxide hydrolase (sEH)” value in data set [3] is listed as “did not have any effect; also recorded: do not affect”.

Consider `Nc1nc(-c2ccc(Cc3ccccc3)cc2)co1` [TTO, 4-(4-benzylphenyl) oxazol-2-amine], for which the “Tm … of inhibitor” value on LTA4H [1] stood at 60.7 °C. Further, the figures for the Kd at LTA4H [1] (setting [4]), at LTA4H [2] (setting [5]) and on LTA4H [2] (setting [6]) were 510 ± 40 nM, 326 ± 29.4 nM and 330 nM, respectively. Moreover, the “effect on the activity of soluble epoxide hydrolase (sEH) at 10 µM” value in data set [3] (10 µM inhibitor) is “attenuated”. The “effect on the activity of recombinant soluble epoxide hydrolase (sEH)” value in data set [3] is “at higher concentrations may affect”.

For `Nc1nc(-c2ccc(Cc3ccccc3)cc2)c[se]1` [TTSe, 4-(4-benzylphenyl) selenazol-2-amine], the Kd amounted to 300 ± 20 nM at LTA4H [1]; 370 nM on LTA4H [2] (dissociation constant (Kd) by ITC); 367 ± 10.7 nM at LTA4H [2] (dissociation constant (Kd) by ITC, mean ± SEM, n = 4). Further, the “Tm … of inhibitor” value at LTA4H [1] was determined as 61.9 °C. The “effect on the activity of recombinant soluble epoxide hydrolase (sEH)” value in data set [3] was “did not have any effect; also recorded: do not affect”.
